Patent publication US4940705A, “N-substituted derivatives of 1-desoxynojirimycin and 1-desoxymannonojirimycin and pharmaceutical use” (Bayer Aktiengesellschaft, priority 1987, dated 1990)
≈ marks a conversion by molar mass, not a printed value.

How the values were obtained:
[1] = system: Visna virus; assay: Visna virus test: inhibition of virus-induced cytopathic effect / virus multiplication in infected cell cultures; type: cell-based; details: Visna-maedi virus, 168 h, sheep fibroblast cells, 7 days at 37° C., Table 1, read-out: 2 MIC (minimum concentration at which an inhibition of virus multiplication was still observed)
Experimental: In cell cultures which are infected with Visna virus, pronounced virus-induced, cytopathic effects appear 5 to 10 days after infection. By treatment of the infected cell cultures with the compounds according to the invention, the appearance of these cytopathic effects could be prevented.
(§1) The Visna virus test was carried out by the method of O. Narayan et al., Journal of Infectious Diseases 135, 5, 1977, 800-806. For this, the compounds according to the invention were diluted to non-cytotoxic concentrations in culture medium in 96-well microtiter plates. Subsequently, sheep fibroblast cells (5×10^4 cells per well) in production medium were added to each well. Each well then contained 50 μl of a Visna virus solution having a titre of about 2.5×10^4TCID50 (TCID=tissue culture infectious dose). This virus dose corresponds to an MOI (multiplicity of infection) of about 0.05.
The infected and treated cells and the controlled cells were incubated for 7 days at 37° C. and 5% CO2.
On appearance of the virus-induced cytopathogenic effect in the untreated virus control, the cultures were fixed using formalin and subsequently stained with a Giemsa solution.
(§2) Herein, MCC denotes cytotoxicity and MIC denotes the minimum concentration at which an inhibition of virus multiplication was still observed.

[2] = Cytotoxicity (MCC); type: cell-based; details: sheep, sheep fibroblast cells; MCC denotes cytotoxicity; Table 1
Experimental: as §1, §2

Row | Compound | MIC [1] | MCC [2]
1 | O=C(CCN1C[C@H](O)[C@@H](O)[C@H](O)[C@H]1CO)Nc1ccc(OCc2ccccc2)cc1 [Example 4, N-(4-Benzyloxyphenyl)-3-(1,5-didesoxy-1,5-imino-D-glucit-N-yl)propionamide] | 125 µg/mL (≈ 300 µM) | > 1000 µg/mL
2 | CC(C)(C)c1ccc(NC(=O)CCN2C[C@H](O)[C@@H](O)[C@H](O)[C@H]2CO)cc1 [Example 7, N-(4-Tert.-butylphenyl)-3-(1,5-didesoxy-1,5-imino-D-glucit-N-yl)propionamid] | 500 µg/mL (≈ 1360 µM) | > 1000 µg/mL
3 | C=CCOc1ccc(NC(=O)CCN2C[C@H](O)[C@@H](O)[C@H](O)[C@H]2CO)cc1 [Example 10, N-(4-Allyloxyphenyl)-3-(1,5-didesoxy-1,5-imino-D-glucit-N-yl)propionamide] | 30 µg/mL (≈ 81.9 µM) | > 1000 µg/mL
4 | O=C(CCN1C[C@H](O)[C@@H](O)[C@H](O)[C@H]1CO)Nc1ccc(C(F)(F)F)cc1 [Example 11, N-(4-Trifluoromethylphenyl)-3-(1,5-didesoxy-1,5-imino-D-glucit-N-yl)propionamide] | 500 µg/mL (≈ 1320 µM) | > 1000 µg/mL
5 | O=C(CCN1C[C@H](O)[C@@H](O)[C@H](O)[C@H]1CO)Nc1ccc(OC(F)(F)C(F)Cl)cc1 (stereo partly drawn) [Example 12, N-[4-(2-Chloro-1,1,2-trifluoroethoxy)phenyl]-3-(1,5-didesoxy-1,5-imino-D-glucit-N-yl)propionamide] | 250 µg/mL (≈ 565 µM) | 1000 µg/mL
6 | CC(C)c1ccccc1NC(=O)CCN1C[C@H](O)[C@@H](O)[C@H](O)[C@H]1CO [Example 14, N-(2-Isopropylphenyl)-3-(1,5-didesoxy-1,5-imino-D-glucit-N-yl)propionamide] | 125 µg/mL (≈ 355 µM) | > 1000 µg/mL
7 | O=C(CCN1C[C@H](O)[C@@H](O)[C@H](O)[C@H]1CO)Nc1ccccc1F [Example 16, N-(2-Fluorophenyl)-3-(1,5-didesoxy-1,5-imino-D-glucit-N-yl)propionamide] | 250 µg/mL (≈ 761 µM) | > 1000 µg/mL
8 | O=C(CCN1C[C@H](O)[C@@H](O)[C@H](O)[C@H]1CO)N1CCc2ccccc21 [Example 17, 1-[3-(1,5-Didesoxy-1,5-imino-D-glucit-N-yl)propionyl]-2,3-dihydroindole] | 125 µg/mL (≈ 372 µM) | 1000 µg/mL
9 | O=C(CCN1C[C@H](O)[C@@H](O)[C@H](O)[C@H]1CO)Nc1ccc(F)cc1F [Example 18, N-(2,4-Difluorophenyl)-3-(1,5-didesoxy-1,5-imino-D-glucit-N-yl)propionamide] | 500 µg/mL (≈ 1440 µM) | > 1000 µg/mL
10 | O=C(CCN1C[C@H](O)[C@@H](O)[C@H](O)[C@H]1CO)Nc1ccc(F)c(F)c1 [Example 19, N-(3,4-Difluorophenyl)-3-(1,5-didesoxy-1,5-imino-D-glucit-N-yl)propionamide] | 125 µg/mL (≈ 361 µM) | > 1000 µg/mL
11 | COc1cc(NC(=O)CCN2C[C@H](O)[C@@H](O)[C@H](O)[C@H]2CO)cc(OC)c1OC [Example 23, N-(3,4,5-Trimethoxyphenyl)-3-(1,5-didesoxy-1,5-imino-D-glucit-N-yl)propionamide] | 75 µg/mL (≈ 187 µM) | 150 µg/mL
12 | COc1ccc(NC(=O)CCN2C[C@H](O)[C@@H](O)[C@H](O)[C@H]2CO)cc1OC [Example 24, N-(3,4-Dimethoxyphenyl)-3-(1,5-didesoxy-1,5-imino-D-glucit-N-yl)propionamide] | 125 µg/mL (≈ 337 µM) | > 1000 µg/mL
13 | COc1cc(NC(=O)CCN2C[C@H](O)[C@@H](O)[C@H](O)[C@H]2CO)cc(OC)c1 [Example 25, N-(3,5-Dimethoxyphenyl)-3-(1,5-didesoxy-1,5-imino-D-glucit-N-yl)propionamide] | 250 µg/mL (≈ 675 µM) | > 1000 µg/mL
14 | N#Cc1cccc(NC(=O)CCN2C[C@H](O)[C@@H](O)[C@H](O)[C@H]2CO)c1 [Example 27, N-(3-Cyanophenyl)-3-(1,5-didesoxy-1,5-imino-D-glucit-N-yl)propionamide] | 250 µg/mL (≈ 745 µM) | > 1000 µg/mL
15 | O=C(CCN1C[C@H](O)[C@@H](O)[C@H](O)[C@H]1CO)Nc1ccc(C2CCCCC2)cc1 [Example 28, N-(4-Cyclohexylphenyl)-3-(1,5-didesoxy-1,5-imino-D-glucit-N-yl)propionamide] | 500 µg/mL (≈ 1270 µM) | > 1000 µg/mL
16 | O=C(CCN1C[C@H](O)[C@@H](O)[C@H](O)[C@H]1CO)Nc1ccc2c(c1)OCCO2 [Example 29, N-(3,4-Ethylenedioxyphenyl)-3-(1,5-didesoxy-1,5-imino-D-glucit-N-yl)propionamide] | 125 µg/mL (≈ 339 µM) | > 1000 µg/mL
17 | O=C(CCN1C[C@H](O)[C@@H](O)[C@H](O)[C@H]1CO)Nc1ccc2c(c1)OCO2 [Example 31, N-(3,4-Methylenedioxyphenyl)-3-(1,5-didesoxy-1,5-imino-D-glucit-N-yl)propionamide] | 125 µg/mL (≈ 353 µM) | > 1000 µg/mL

Row | Compound | MIC [1] | MCC [2]
18 | CSc1ccccc1NC(=O)CCN1C[C@H](O)[C@@H](O)[C@H](O)[C@H]1CO [Example 32, N-(2-Methylthiophenyl)-3-(1,5-didesoxy-1,5-imino-D-glucit-N-yl)propionamide] | 250 µg/mL (≈ 701 µM) | > 1000 µg/mL
19 | O=C(CCN1C[C@H](O)[C@@H](O)[C@H](O)[C@H]1CO)Nc1ccccc1 [Example 34, N-Phenyl-3-(1,5-didesoxy-1,5-imino-D-glucit-N-yl)propionamide] | 15 µg/mL (≈ 48.3 µM) | > 1000 µg/mL
20 | CCOc1ccc(NC(=O)CCN2C[C@H](O)[C@@H](O)[C@H](O)[C@H]2CO)cc1 [Example 35, N-(4-Ethoxyphenyl)-3-(1,5-didesoxy-1,5-imino-D-glucit-N-yl)propionamide] | 15 µg/mL (≈ 42.3 µM) | 250 µg/mL
21 | O=C(CCN1C[C@H](O)[C@@H](O)[C@H](O)[C@H]1CO)NCc1ccccn1 [Example 38, N-(2-Pyridylmethyl)-3-(1,5-didesoxy-1,5-imino-D-glucit-N-yl)propionamide] | 250 µg/mL (≈ 768 µM) | 1000 µg/mL
22 | O=C(CCN1C[C@H](O)[C@@H](O)[C@H](O)[C@H]1CO)Nc1ccc(OCCO)cc1 [Example 40, N-[4-(2-Hydroxyethoxy)phenyl]-3-(1,5-didesoxy-1,5-imino-D-glucit-N-yl)propionamide] | 15 µg/mL (≈ 40.5 µM) | > 1000 µg/mL
23 | O=C(CCN1C[C@H](O)[C@@H](O)[C@H](O)[C@H]1CO)N1CCN(c2ccc(F)cc2)CC1 [Example 41, 3-(1,5-Didesoxy-1,5-imino-D-glucit-N-yl)propionyl-1-(4-p-fluorophenyl)piperazine] | 125 µg/mL (≈ 315 µM) | 1000 µg/mL
24 | COC(=O)c1ccc(NC(=O)CCN2C[C@@H](O)[C@@H](O)[C@H](O)[C@H]2CO)cc1 [Example 43, N-(4-Methoxycarbonylphenyl)-3-(1,5-didesoxy-1,5-imino-D-mannit-N-yl)propionamide] | 500 µg/mL (≈ 1360 µM) | > 1000 µg/mL
25 | CCN(CC)CCOc1ccc(NC(=O)CCN2C[C@@H](O)[C@@H](O)[C@H](O)[C@H]2CO)cc1 [Example 50, N-[4-(2-N,N-Diethylaminoethoxy)phenyl]-3-(1,5-didesoxy-1,5-imino-D-mannit-N-yl)propionamide] | 250 µg/mL (≈ 588 µM) | 1000 µg/mL
26 | C=CCOc1ccc(NC(=O)CCN2C[C@@H](O)[C@@H](O)[C@H](O)[C@H]2CO)cc1 [Example 51, N-(4-Allyloxyphenyl)-3-(1,5-didesoxy-1,5-imino-D-mannit-N-yl)propionamide] | 250 µg/mL (≈ 682 µM) | 1000 µg/mL
27 | O=C(CCN1C[C@@H](O)[C@@H](O)[C@H](O)[C@H]1CO)Nc1ccc(OC(F)(F)C(F)Cl)cc1 (stereo partly drawn) [Example 53, N-[4-(2-Chloro-1,1,2-trifluoroethoxy)phenyl]-3-(1,5-didesoxy-1,5-imino-D-mannit-N-yl)propionamide] | 250 µg/mL (≈ 565 µM) | 500 µg/mL
28 | CC(C)c1ccc(NC(=O)CCN2C[C@@H](O)[C@@H](O)[C@H](O)[C@H]2CO)cc1 [Example 54, N-(4-Isopropylphenyl)-3-(1,5-didesoxy-1,5-imino-D-mannit-N-yl)propionamide] | 250 µg/mL (≈ 709 µM) | 1000 µg/mL
29 | CC(C)c1ccccc1NC(=O)CCN1C[C@@H](O)[C@@H](O)[C@H](O)[C@H]1CO [Example 55, N-(2-Isopropylphenyl)-3-(1,5-didesoxy-1,5-imino-D-mannit-N-yl)propionamide] | 250 µg/mL (≈ 709 µM) | 1000 µg/mL
30 | O=C(CCN1C[C@@H](O)[C@@H](O)[C@H](O)[C@H]1CO)Nc1ccc(F)c(F)c1 [Example 60, N-(3,4-Difluorophenyl)-3-(1,5-didesoxy-1,5-imino-D-mannit-n-yl)propionamide] | 500 µg/mL (≈ 1440 µM) | > 1000 µg/mL
31 | COc1cc(NC(=O)CCN2C[C@@H](O)[C@@H](O)[C@H](O)[C@H]2CO)cc(OC)c1 [Example 66, N-(3,5-Dimethoxyphenyl)-3-(1,5-didesoxy-1,5-imino-D-mannit-N-yl)propionamide] | 500 µg/mL (≈ 1350 µM) | 1000 µg/mL
32 | N#Cc1cccc(NC(=O)CCN2C[C@@H](O)[C@@H](O)[C@H](O)[C@H]2CO)c1 [Example 68, N-(3-Cyanophenyl)-3-(1,5-didesoxy-1,5-imino-D-mannit-N-yl)propionamide] | 250 µg/mL (≈ 745 µM) | 500 µg/mL
33 | O=C(CCN1C[C@@H](O)[C@@H](O)[C@H](O)[C@H]1CO)Nc1ccc2c(c1)OCO2 [Example 72, N-(3,4-Methylenedioxyphenyl)-3-(1,5-didesoxy-1,5-imino-N-yl)propionamide] | 500 µg/mL (≈ 1410 µM) | > 1000 µg/mL
34 | CCOc1ccc(NC(=O)CCN2C[C@@H](O)[C@@H](O)[C@H](O)[C@H]2CO)cc1 [Example 76, N-(4-Ethoxyphenyl)-3-(1,5-didesoxy-1,5-imino-D-mannit-N-yl)propionamide] | 500 µg/mL (≈ 1410 µM) | > 1000 µg/mL
